Test results: patent US4504486A (priority 1982, dated 1985)

Columns and labels:
Plasmopara viticola = test: Grape Downy Mildew Control (detached grape leaves); type: in vivo; conditions: in Vitis vinifera, 250 ppm spray, disease reduction relative to untreated check, read-out: % Control GDM (Grape Downy Mildew)
Experimental: Grape Downy Mildew Control
The compounds of the invention were tested for the control of the Grape Downy Mildew Control organism Plasmopara viticola. Detached leaves, between 70 and 85 mm in diameter, of 7-week old Vitis vinifera cultivar Emperor grape seedlings were used as hosts. The leaves were sprayed with a 250 ppm solution of the test compound in acetone. The sprayed leaves were dried, inoculated with a spore suspension of the organism, placed in a humid environmental chamber and incubated at 66° to 68° F. and about 100% relative humidity. After incubation for 2 days, the plants were then held in a greenhouse 7 to 9 days; then the amount of disease control was determined. The percent disease control provided by a given test compound was based on the percent disease reduction relative to untreated check plants.

Phytophthora infestans = test: whole plant or invertebrate; type: in vivo; conditions: in Solanum lycopersicum, 168 h, read-out: % Control TLB (Tomato Late Blight)
[1] = tested on: Alternaria solani conidia; test: Tomato Early Blight (tomato seedlings); type: in vivo; conditions: 250 ppm spray, inoculated 1 day later, relative to untreated check
Experimental: Compounds of the invention were tested for the control of the Tomato Early Blight organism, Alternaria solani conidia. Tomato (variety Bonny Best) seedlings of 6 to 7 weeks old were used. The tomato plants were sprayed with a 250 ppm solution of the test compound in an acetone-and-water solution containing a small amount of a nonionic emulsifier. The sprayed plants were inoculated 1 day later with the organism, placed in the environmental chamber and incubated at 66° to 68° F. and 100% relative humidity for 24 hours. Following the incubation, the plants were maintained in a greenhouse for about 12 days. Percent diseases control was based on the percent disease development on untreated check plants.

Erisiphe polygoni = test: Bean Powdery Mildew (seedling bean plants); type: in vivo; conditions: 240 h; 250 ppm spray; bean seedlings, inoculated 1 day later; relative to untreated check; read-out: % Control BPM (Bean Powdery Mildew)
Experimental: The compounds of the invention were tested for the control of the Bean Powdery Mildew organism Erisiphe polygoni. Seedling bean plants were sprayed with a 250 ppm solution of the test compound in acetone, water and a nonionic emulsifier. The sprayed plants were then inoculated 1 day later with organism. The plants were maintained for 10 days at temperatures of 68° F. at night with daytime temperatures of 72° to 80° F.; relative humidity was maintained at 40% to 60%. The percent disease control provided by a given test compound was based on the percent disease reduction relative to the untreated check plants.

Uronyces phaseoli tipica = test: Leaf Rust / Bean Rust (pinto beans); type: in vivo; conditions: 336 h, 250 ppm spray, about 14 days, relative to untreated check, read-out: % Control BR (Bean Rust)
Experimental: The Leaf Rust test was made using pinto beans. The pathogen was Uronyces phaseoli tipica. The pinto bean plants were sprayed with a 250 ppm solution of the test compound in an acetone-water mixture containing a nonionic emulsifier. The treated plants were inoculated thereafter with the pathogen and then incubated in an environmental chamber for approximately 20 hours at 100% relative humidity and a temperature of 68° to 70° F. The plants were then removed from the chamber, allowed to dry, and then maintained in a greenhouse at a 60% to 80% relative humidity. The rate of infection on the leaves was made after about 14 days. The percent disease control provided by a given test compound was based on the percent disease reduction relative to untreated check plants.

Botrytis cinerea = test: Mycelial Inhibition, Botrytis cinerea; type: cell-based; conditions: Standard DIFOLATAN; 500 ppm, 25° C., 24 hours; 0 = more than 1.6 micrograms/cm^2 required for 99% control
Experimental: (§1) The compounds of the present invention were evaluated for in-vitro fungicidal effectiveness by means of a Mycelial Inhibition test. This test is designed to measure the fungitoxic activity of fungicidal chemicals in terms of their degree of inhibition of mycelium growth. Each compound to be tested was dissolved in acetone to 500 ppm concentration. Paper strips were infused with the particular mycelium growth by covering the paper with a potato dextrose broth culture of mycelial suspension. The papers were then placed on potato dextrose agar plates and sprayed by means of a microsprayer with the fungicidal solution. The treated paper strips were incubated at 25° C. and the data is taken after 24 hours. Fungicidal activities are measured by a zone of inhibited mycelial growth from the center of the paper strip. The effectiveness of the compounds tested for fungicidal activity is reported in Table II (a) for those compounds which were effective in inhibiting mycelial growth.
(§2) The activity is reported in terms of [formula]
(§3) When more than 1.6 micrograms/cm^2 for 99% control of the fungus for the test compound is required, the activity is reported as 0.

Pythium ultimum = test: Mycelial Inhibition, Pythium ultimum; type: cell-based; conditions: Standard DIFOLATAN; 500 ppm, 25° C., 24 hours; 0 = more than 1.6 micrograms/cm^2 required for 99% control
Experimental: as §1, §2, §3

Rhizoctania solani = test: Mycelial Inhibition, Rhizoctania solani; type: cell-based; conditions: Standard DIFOLATAN; 500 ppm, 25° C., 24 hours; 0 = more than 1.6 micrograms/cm^2 required for 99% control
Experimental: as §1, §2, §3

Septoria apii = type: in vivo; conditions: 250 ppm spray; celery plants; relative to untreated check
Piricularia oryzae = type: in vivo; conditions: 625 ppm spray; rice seedlings, inoculated 1 day later; relative to untreated check

SMILES | pest or weed control at 250 ppm (Plasmopara viticola) [%] | pest or weed control at 250 ppm (Phytophthora infestans) [%] | % Control TEB (Tomato Early Blight) [1] [%] | pest or weed control at 250 ppm (Erisiphe polygoni) [%] | pest or weed control at 250 ppm (Uronyces phaseoli tipica) [%] | Mycelial inhibition, Botrytis (% Standard) (Botrytis cinerea) | Mycelial inhibition, Pythium (% Standard) (Pythium ultimum) | Mycelial inhibition, Rhizoc. (% Standard) (Rhizoctania solani) | % Control CLB (Celery Late Blight) (Septoria apii) [%] | % Control Rice Blast (Piricularia oryzae) [%]
Cc1cc(=O)on1C(=O)c1ccc([N+](=O)[O-])cc1 [Compound 1, 3-methyl-2-(4'-nitrobenzoyl)-3-isoxazolin-5-one] | 21 | 0 | 0 | 0 | 0 | 0 | 0 | 0 |  | 
Cc1cc(=O)on1C(=O)c1ccc(Cl)cc1Cl [Compound 2, 3-methyl-2-(2',4'-dichlorobenzoyl)-3-isoxazolin-5-one] | 14 | 97 | 92 | 21 | 0 | 34 | 0 | 0 | 99 | 
CCCc1cc(=O)on1C(=O)c1ccc(Cl)cc1Cl [Compound 3, 3-n-propyl-2-(2',4'-dichlorobenzoyl)-3-isoxazolin-5-one] | 0 | 35 |  | 0 | 0 | 0 |  | 0 | 0 | 44
Cc1cc(=O)on1C(=O)c1ccccc1 [Compound 4] | 6 | 50 |  | 0 | 0 | 0 |  | 0 | 0 | 0
CC(C)c1cc(=O)on1C(=O)c1ccc(Cl)cc1Cl [Compound 5] | 3 | 69 |  | 0 | 0 | 0 |  | 23 | 0 | 83
Cc1cc(=O)on1C(=O)c1ccc(Cl)cc1 [Compound 6] | 16 | 50 | 0 | 0 | 0 | 6 | 12 | 33 | 0 | 0
Cc1cc(=O)on1C(=O)c1ccc([N+](=O)[O-])cc1Cl [Compound 7] | 19 | 31 | 0 | 0 | 0 | 0 | 0 | 0 | 44 | 50
Cc1cc(=O)on1C(=O)c1ccc(Cl)cc1[N+](=O)[O-] [Compound 8] | 6 | 56 | 56 | 0 | 0 | 15 | 0 | 0 | 11 | 0
